Ends that are not written are not given here. Peptide text beside a SMILES is read from it. * marks the point of attachment. Biotin = O=C1N[C@H]2[C@H](CS[C@H]2CCCCC(=O)*)N1
Key:
Experiment in all cases: G' assay (10 uM PL peptide), results of TABLE 7 and TABLE 12
Assay type in all cases: binding
[1] = tested on: PDZ protein (GST-PDZ fusion)
Outline: (§1)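 Binding classes derive from A450 nm of bound biotin-tagged PL peptide. A score of 5 needs A450 above 4 in more than two repeats.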

[2] = biological target: T1, PDZ protein (GST-PDZ fusion) (Homo sapiens, UniProt Q96JH8); conditions: PDZ FLJ 10324, PDZ Domain 1
T1 construct: made in house; host or cells: E. coli (DH5alpha, BL21 or JM109)
T1 sequence (Q96JH8 1-1075): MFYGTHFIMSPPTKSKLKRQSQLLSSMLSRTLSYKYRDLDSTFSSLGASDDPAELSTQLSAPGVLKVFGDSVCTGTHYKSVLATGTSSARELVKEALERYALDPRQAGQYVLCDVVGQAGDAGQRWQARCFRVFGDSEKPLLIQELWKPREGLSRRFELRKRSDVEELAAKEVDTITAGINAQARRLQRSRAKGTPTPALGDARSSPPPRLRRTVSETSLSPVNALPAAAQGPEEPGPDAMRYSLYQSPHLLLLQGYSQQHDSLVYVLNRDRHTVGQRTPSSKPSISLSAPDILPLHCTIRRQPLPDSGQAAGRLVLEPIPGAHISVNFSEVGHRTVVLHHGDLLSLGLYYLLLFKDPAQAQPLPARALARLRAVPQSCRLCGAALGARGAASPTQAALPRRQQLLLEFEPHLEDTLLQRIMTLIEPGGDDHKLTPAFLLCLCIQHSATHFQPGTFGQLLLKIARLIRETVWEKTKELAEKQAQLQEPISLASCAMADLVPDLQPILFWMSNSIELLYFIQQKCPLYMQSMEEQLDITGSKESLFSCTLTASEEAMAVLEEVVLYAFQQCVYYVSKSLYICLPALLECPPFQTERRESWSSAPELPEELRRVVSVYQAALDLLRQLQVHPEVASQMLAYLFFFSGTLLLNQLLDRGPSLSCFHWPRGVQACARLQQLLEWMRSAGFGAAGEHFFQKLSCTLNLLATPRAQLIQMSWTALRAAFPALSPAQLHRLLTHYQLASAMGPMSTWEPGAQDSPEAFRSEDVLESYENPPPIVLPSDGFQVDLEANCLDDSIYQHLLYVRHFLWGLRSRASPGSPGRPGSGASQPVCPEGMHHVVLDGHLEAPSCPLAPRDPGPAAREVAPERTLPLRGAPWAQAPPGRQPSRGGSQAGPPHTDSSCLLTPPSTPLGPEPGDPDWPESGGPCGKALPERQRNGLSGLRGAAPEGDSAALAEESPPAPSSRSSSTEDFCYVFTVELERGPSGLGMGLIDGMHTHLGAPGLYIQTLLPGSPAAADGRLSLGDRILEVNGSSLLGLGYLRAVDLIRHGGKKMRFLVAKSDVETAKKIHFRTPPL
Outline: as §1

[3] = biological target: T2, PDZ protein (GST-PDZ fusion) (Homo sapiens, UniProt Q02410)
T2 construct: made in house; host or cells: E. coli (DH5alpha, BL21 or JM109)
T2 sequence (Q02410 1-837): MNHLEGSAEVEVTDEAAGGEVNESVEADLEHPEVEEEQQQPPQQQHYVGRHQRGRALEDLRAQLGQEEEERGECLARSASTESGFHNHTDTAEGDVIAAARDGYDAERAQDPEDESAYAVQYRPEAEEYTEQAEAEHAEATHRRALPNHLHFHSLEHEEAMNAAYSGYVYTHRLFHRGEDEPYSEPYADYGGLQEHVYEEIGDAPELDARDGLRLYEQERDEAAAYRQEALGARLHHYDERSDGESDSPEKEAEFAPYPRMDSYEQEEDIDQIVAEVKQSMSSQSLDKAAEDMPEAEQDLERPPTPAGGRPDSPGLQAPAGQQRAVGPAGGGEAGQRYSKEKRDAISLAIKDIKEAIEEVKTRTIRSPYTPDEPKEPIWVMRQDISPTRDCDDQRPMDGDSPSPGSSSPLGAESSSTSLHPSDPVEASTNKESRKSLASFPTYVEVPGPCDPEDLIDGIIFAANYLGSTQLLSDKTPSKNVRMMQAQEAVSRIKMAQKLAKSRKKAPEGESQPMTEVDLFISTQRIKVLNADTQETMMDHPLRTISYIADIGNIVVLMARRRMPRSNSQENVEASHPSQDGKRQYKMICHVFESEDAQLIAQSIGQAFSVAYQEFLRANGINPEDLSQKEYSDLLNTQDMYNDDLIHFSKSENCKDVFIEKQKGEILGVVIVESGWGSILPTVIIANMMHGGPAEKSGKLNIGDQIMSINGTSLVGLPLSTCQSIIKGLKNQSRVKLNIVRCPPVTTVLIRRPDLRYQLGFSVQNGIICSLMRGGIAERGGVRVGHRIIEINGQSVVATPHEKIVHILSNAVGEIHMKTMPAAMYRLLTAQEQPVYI
Outline: as §1

[4] = PDZ HEMBA 1003117, PDZ Domain 1

Compound	Classification [2]	Classification ([3]; PDZ Mint 1, PDZ Domain 1, 2)	Classification ([3]; PDZ Mint 1, PDZ Domain 2)	Classification [1, 4]	Classification ([1]; PDZ BAI-1, PDZ Domain 6)	Classification ([1]; PDZ SHANK, PDZ Domain 1)	Classification ([1]; PDZ BAI-1, PDZ Domain 2)	Classification ([1]; PDZ BAI-1, PDZ Domain 5)	also measured
CC(C)C[C@H](NC(=O)[C@H](Cc1c[nH]c2ccccc12)NC(=O)[C@H](Cc1c[nH]cn1)NC(=O)[C@H](CCCNC(=N)N)NC(=O)[C@H](CC(C)C)NC(=O)[C@@H](NC(=O)[C@H](Cc1ccccc1)NC(=O)[C@H](CCC(N)=O)NC(=O)[C@H](CCCNC(=N)N)NC(=O)[C@@H](NC(=O)[C@H](CCC(=O)O)NC(=O)CNC(=O)[C@H](CCCNC(=N)N)NC(=O)[C@H](CC(=O)O)NC(=O)[C@@H](NC(=O)[C@H](CC(C)C)NC(=O)[C@H](CCC(=O)O)NC(=O)[C@H](CCCNC(=N)N)NC(=O)CCCC[C@@H]1SC[C@@H]2NC(=O)N[C@@H]21)C(C)C)C(C)C)[C@@H](C)O)C(=O)N[C@@H](CCCCN)C(=O)N[C@H](C(=O)O)C(C)C [Dopamine transporter (Na+-dependent)] (Biotin-RELVDRGEVRQFTLRHWLKV-OH; C-terminus assumed)	5 (A450 nm of 4 more than 2× repeated)	–	–	5 (A450 nm of 4 more than 2× repeated)	–	–	–	–	–
LASKSAEEGKQIPDSLSTDL (Biotin-LASKSAEEGKQIPDSLSTDL) [Dock2]	1 (A450 nm 0-1)	–	–	1 (A450 nm 0-1)	1 (A450 nm 0-1)	1 (A450 nm 0-1)	–	–	–
CC[C@H](C)[C@H](NC(=O)[C@H](CCC(=O)O)NC(=O)[C@H](CC(N)=O)NC(=O)[C@H](CCCNC(=N)N)NC(=O)[C@H](Cc1ccccc1)NC(=O)[C@H](CC(N)=O)NC(=O)[C@H](CO)NC(=O)[C@H](CC(N)=O)NC(=O)[C@H](CCC(=O)O)NC(=O)[C@H](CO)NC(=O)[C@H](CC(=O)O)NC(=O)[C@H](CO)NC(=O)[C@@H](NC(=O)[C@@H](NC(=O)[C@H](CC(=O)O)NC(=O)[C@H](CCCCN)NC(=O)CCCC[C@@H]1SC[C@@H]2NC(=O)N[C@@H]21)[C@@H](C)CC)[C@@H](C)O)C(=O)N[C@@H](CCC(N)=O)C(=O)N[C@@H](CO)C(=O)N[C@@H](CC(C)C)C(=O)N[C@H](C(=O)O)C(C)C [CD95] (Biotin-KDITSDSENSNFRNEIQSLV-OH; C-terminus assumed)	1 (A450 nm 0-1)	–	–	–	–	–	–	3 (A450 nm 2-3)	–
CC[C@H](C)[C@H](NC(=O)[C@H](CCC(N)=O)NC(=O)CCCC[C@@H]1SC[C@@H]2NC(=O)N[C@@H]21)C(=O)N[C@@H](CO)C(=O)N1CCC[C@H]1C(=O)NCC(=O)NCC(=O)N[C@@H](CC(C)C)C(=O)N[C@@H](CCC(=O)O)C(=O)N1CCC[C@H]1C(=O)N1CCC[C@H]1C(=O)N[C@@H](CO)C(=O)N[C@@H](CCC(=O)O)C(=O)N[C@@H](CCCCN)C(=O)N[C@@H](Cc1c[nH]cn1)C(=O)N[C@@H](Cc1ccccc1)C(=O)N[C@@H](CCCNC(=N)N)C(=O)N[C@@H](CCC(=O)O)C(=O)N[C@H](C(=O)N[C@@H](CCC(=O)O)C(=O)N[C@H](C(=O)O)C(C)C)[C@@H](C)O [Tax]	1 (A450 nm 0-1)	–	–	–	1 (A450 nm 0-1)	–	5 (A450 nm of 4 more than 2× repeated)	5 (A450 nm of 4 more than 2× repeated)	Classification ([1]; PDZ BAI-1, PDZ Domain 3): 1 (A450 nm 0-1); Classification ([1]; PDZ BAI-1, PDZ Domain 4): 2 (A450 nm 1-2); Classification ([1]; PDZ Connector Enhancer, PDZ Domain 1): 1 (A450 nm 0-1); Classification ([1]; PDZ FLJ 00011, PDZ Domain 1): 1 (A450 nm 0-1); Classification ([1]; PDZ FLJ 11215, PDZ Domain 1): 1 (A450 nm 0-1)
LNETTETQRTLLNGDLQTSI (Biotin-LNETTETQRTLLNGDLQTSI) [SSTR2 (somatostatin recepor 2)]	–	1 (A450 nm 0-1)	1 (A450 nm 0-1)	–	–	1 (A450 nm 0-1)	–	–	–

More lines, main results first:

Classification [2]	Classification ([3]; PDZ Mint 1, PDZ Domain 1, 2)	Classification ([3]; PDZ Mint 1, PDZ Domain 2)	Compound	Classification [1, 4]	Classification ([1]; PDZ BAI-1, PDZ Domain 6)	Classification ([1]; PDZ SHANK, PDZ Domain 1)	Classification ([1]; PDZ BAI-1, PDZ Domain 2)	Classification ([1]; PDZ BAI-1, PDZ Domain 5)	also measured
1 (A450 nm 0-1)	–	–	SLKPGTVLPPPPYRHRNTVV (Biotin-SLKPGTVLPPPPYRHRNTVV) [ErbB-4 receptor]	–	–	–	–	–	Classification ([1]; PDZ BAI-1, PDZ Domain 3): 1 (A450 nm 0-1)
–	1 (A450 nm 0-1)	1 (A450 nm 0-1)	CC(C)C[C@H](NC(=O)[C@H](CC(=O)O)NC(=O)[C@H](CO)NC(=O)[C@H](CCC(=O)O)NC(=O)CNC(=O)[C@H](Cc1ccc(O)cc1)NC(=O)[C@H](CC(C)C)NC(=O)[C@H](C)NC(=O)[C@H](CO)NC(=O)[C@H](CO)NC(=O)[C@H](Cc1ccccc1)NC(=O)[C@H](C)NC(=O)[C@H](C)NC(=O)[C@H](Cc1ccc(O)cc1)NC(=O)[C@H](CC(=O)O)NC(=O)[C@H](CC(C)C)NC(=O)[C@H](C)NC(=O)CNC(=O)[C@@H]1CCCN1C(=O)[C@@H](NC(=O)CCCC[C@@H]1SC[C@@H]2NC(=O)N[C@@H]21)C(C)C)C(=O)O [a-actinin 2] (Biotin-VPGALDYAAFSSALYGESDL-OH; C-terminus assumed)	–	5 (A450 nm of 4 more than 2× repeated)	1 (A450 nm 0-1)	1 (A450 nm 0-1)	–	Classification ([1]; PDZ LIM Protein, PDZ Domain 1): 4 (A450 nm 3-4); Classification ([1]; PDZ Novel PDZ, PDZ Domain 1): 2 (A450 nm 1-2)
1 (A450 nm 0-1)	–	–	GPVPGEPAKPKTSAHHATFV (Biotin-GPVPGEPAKPKTSAHHATFV)	1 (A450 nm 0-1)	–	–	–	–	–
–	3 (A450 nm 2-3)	3 (A450 nm 2-3)	CC[C@H](C)[C@H](NC(=O)CNC(=O)[C@H](CO)NC(=O)[C@H](Cc1ccccc1)NC(=O)[C@@H](NC(=O)[C@H](CS)NC(=O)CNC(=O)CNC(=O)[C@H](C)NC(=O)[C@@H]1CCCN1C(=O)[C@@H](NC(=O)[C@@H]1CCCN1C(=O)CCCC[C@@H]1SC[C@@H]2NC(=O)N[C@@H]21)[C@@H](C)CC)[C@@H](C)O)C(=O)N[C@@H](Cc1ccccc1)C(=O)N1CCC[C@H]1C(=O)N[C@H](C(=O)N[C@@H](CC(C)C)C(=O)N[C@H](C(=O)N[C@@H](CO)C(=O)N1CCC[C@H]1C(=O)N[C@@H](CC(C)C)C(=O)O)[C@@H](C)O)[C@@H](C)O [KIA 1481] (Biotin-PIPAGGCTFSGIFPTLTSPL-OH; C-terminus assumed)	–	2 (A450 nm 1-2)	5 (A450 nm of 4 more than 2× repeated)	2 (A450 nm 1-2)	3 (A450 nm 2-3)	Classification ([1]; PDZ BAI-1, PDZ Domain 4): 1 (A450 nm 0-1); Classification ([1]; PDZ FLJ00011 (also printed FLJ 00011), PDZ Domain 1): 2 (A450 nm 1-2); Classification ([1]; PDZ Novel PDZ, PDZ Domain 1): 1 (A450 nm 0-1); Classification ([1]; PDZ Novel PDZ, PDZ Domain 2): 1 (A450 nm 0-1)
